Data reported in US10596169B2, “Cancer treatment with combination of plinabulin and taxane” (BeyondSpring Inc., priority 2013, dated 2020).

Experiments:
[1] = mouse, in vivo
Procedure: Female nude mice (Hsd: Athymic Nude-Foxn1^nu) between 5 and 6 weeks of age weighing approximately 20 grams were obtained from Harlan, Inc. (Madison, Wis.). MV522 is a conventional human NSC metastatic lung tumor cell line (U.S. Pat. No. 7,700,615 or 7,629,380). Animals were injected subcutaneously (SC) with approximately 1×10^7 MV522 cells harvested from tissue culture. When tumors grew to approximately 105 cubic millimeters (mm^3) in size (3 days following implantation), animals were pair-matched by tumor size into treatment and control groups; each treatment group contained eight mice. Animals were ear-tagged and followed individually throughout the experiment.
Initial doses were administered on Day 1 following pair-matching. The experiment was carried out as a tumor growth inhibition (TGI) and tumor growth delay (TGD) study. Group 1 endpoint was when tumor volume reached 1.2 cm^3 (TGI) and the treated groups endpoint was when each individual animal's tumor volume reached 1.5 cm^3 (TGD). […] To serve as negative controls, NPI-2358 vehicle and docetaxel vehicle were injected IP on a 2×WKLY×3 schedule and IV on a Q2D×3 schedule, respectively. Docetaxel was administered by intravenous (IV) injection via tail vein at 15 mg/kg once every other day for three treatments (Q2D×3) or at 25 mg/kg on a Q7D×3 schedule (every 7 day for three treatment). Docetaxel and docetaxel vehicle were administered two hours prior to NPI-2358 vehicle and NPI-2358, respectively, in Groups 7-9 and 12-14. For Groups 10, 11, 15, and 16, NPI-2358 was given two hours prior to docetaxel.
Individual and group mean weights ±SD and percent weight change were recorded twice weekly until study completion beginning Day 1. Group weights on Day 42 and weight nadir values are reported.
Animals were observed twice weekly for general moribundity and daily for mortality.

[2] = system: stage IIIb/IV non-small cell lung cancer; assay: Example 3: clinical study, efficacy (overall survival, response rate), Arm DN vs Arm D; assay type: in vivo, human (NSCLC patients); details: for OS / Response Rate: Arm DN (30 mg/m^2) vs Arm D
Procedure: The investor applied the optimum plinabulin and docetaxel combination treatment schedule derived from MV522 animal studies in NSCLC patients. Patients received therapy on Day 1 and Day 8 in 3-week cycles. Therapy on Day 1 consisted of 75 mg/m^2 docetaxel administered via intravenous infusion (IV) over 1 hour, followed 2 hours later (from the time the docetaxel infusion begins) by 30 mg/m^2 plinabulin administered via intravenous infusion (IV) over 30 minutes. Therapy on Day 8 consisted of 20 mg/m^2 or 30 mg/m^2 plinabulin administered via intravenous infusion (IV) over 30 minutes.
To compare the overall survival of patients with NSCLC treated with docetaxel to patients treated with docetaxel+plinabulin.
Secondary: • 1. To compare the response rate, duration of response, 6-month survival, and progression free survival in patients with NSCLC treated with docetaxel to patients with docetaxel+plinabulin; • 2. To compare the safety and adverse events profile of docetaxel to docetaxel+plinabulin.
This was an open-label study in patients with advanced NSCLC that had progressed after treatment with at least 1 chemotherapy regimen. Patients were randomized to receive either docetaxel plus plinabulin (DN) or docetaxel alone (75 mg/m^2) (D). 2 dosing cohorts were investigated: • 1) 30 mg/m^2 dosing cohort: Approximately 110 patients were to be randomized (1:1) to receive either docetaxel plus plinabulin at 30 mg/m^2 (DN 30 mg/m^2 arm) or docetaxel alone (D arm); • 2) 20 mg/m^2 dosing cohort: Approximately 57 patients were to be randomized (2:1) to receive either docetaxel plus plinabulin at 20 mg/m^2 (DN 20 mg/m^2 arm) or docetaxel (D arm) alone.
Patients received therapy on Day 1 and Day 8 in 3-week cycles.
Therapy on Day 1 consisted of 75 mg/m^2 docetaxel administered via intravenous infusion (IV) over 1 hour, followed 2 hours later (from the time the docetaxel infusion began) by placebo (Arm D) or 30 mg/m^2 or 20 mg/m^2 plinabulin (Arm DN) DN administered via intravenous infusion (IV) over 30 minutes. Oral dexamethasone (16 mg) was given the day prior to, the day of and the day following docetaxel infusion (Day 1). Therapy on Day 8 consisted of placebo (Arm D) or 30 mg/m^2 or 20 mg/m^2 plinabulin (Arm DN) administered via intravenous infusion (IV) over 30 minutes.
Patients with stage IIIb/IV non-small cell lung cancer that has progressed after treatment with at least one chemotherapy regimen.
Assessment of response to treatment occurred during the rest period of the second cycle (and approximately every 2 cycles thereafter).
Comparisons were made of efficacy endpoints between Arm D and Arm DN. The primary efficacy endpoint is overall survival. Secondary endpoints include response rate, duration of response, quality of life, neutropenia rate and G-CSF usage.
The distributions of overall survival and any other time-to-event endpoints were summarized using the Kaplan-Meier method. The log-rank test was used to compare the efficacy endpoints between treatment groups. All statistical tests were carried out using one-sided tests at the 5% level of significance. The primary objective of this trial is to assess the effect of the addition of plinabulin on overall survival.

NSCLC = details: wide type NSCLC patients (stage IIIb/IV, second line), docetaxel 75 mg/m^2; cited from earlier work

## CC(=O)O[C@@]12CO[C@@H]1C[C@H](O)[C@@]1(C)C(=O)[C@H](O)C3=C(C)[C@@H](OC(=O)[C@H](O)[C@@H](NC(=O)OC(C)(C)C)c4ccccc4)C[C@@](O)([C@@H](OC(=O)c4ccccc4)[C@H]21)C3(C)C [Docetaxel, docetaxel]
[1]
  Animal weight loss: significant animal weight loss was observed
[2]; 30 mg/m^2 group, all patients, docetaxel 75 mg/m^2
  Overall survival (OS): 7.5 M
[2]; All Patients
  OS: 7.5 month
  Response Rate: 14.5%
[2]; largest primary tumor >3 cm
  OS: 7.5 month
  Response Rate: 13.9%
[2]; largest primary tumor >5 cm
  OS: 6.7 month
  Response Rate: 15%
[2]; largest primary tumor >7 cm
  OS: 5.03 month
  Response Rate: 20%
[2]; largest primary tumor ≤3 cm
  OS: 6.5 month
  Response Rate: 15.8%
[2]; subgroup all tumor <3 cm, plinabulin 30 mg/m^2
  Overall survival (OS): 6.47 M
[2]; subgroup at least one tumor with diameter greater than 3 cm, plinabulin 30 mg/m^2
  Overall survival (OS): 7.8 M
NSCLC
  OS: 8.2 months
